Where a name gives a salt, the structure may show the parent alone.
Assays:
[1] = system: AVP-induced pressor response (V1A antagonism); test: Antagonism of AVP-induced pressor response, oral, rats; type: in vivo
[2] = system: AVP-induced pressor response (V1A antagonism); test: Antagonism of AVP-induced pressor response, IV, dogs; type: in vivo
[3] = system: urinary output (V2 antagonism); test: Urinary output and osmolality in conscious dogs; type: in vivo
[4] = system: dogs with heart failure induced by rapid right ventricular pacing; test: Heart failure induced by rapid right ventricular pacing; type: in vivo; conditions: IV 0.1 mg/kg
[5] = Oral pharmacokinetics in rat; type: in vivo
Source text: (§1) There is a marked food effect with absorption reduced by >50% in dogs after a meal.

[6] = Oral pharmacokinetics in dog; type: in vivo
Source text: as §1

[7] = system: dogs; test: 2- and 13-week oral toxicity studies in dogs; type: in vivo
[8] = system: rats; test: Reproductive performance / fertility studies in rats; type: in vivo
[9] = system: rats; test: Teratogenicity in rats; type: in vivo
[10] = system: rabbits; test: Teratogenicity in rabbits; type: in vivo
[11] = system: bacteria; test: Mutagenicity in bacteria; type: cell-based
[12] = system: human lymphocytes; test: Clastogenicity in human lymphocytes in vitro; type: cell-based
[13] = system: bone marrow of rats; test: Clastogenicity in bone marrow of rats; type: in vivo
[14] = system: rats; conditions: rat, in vivo, iv, 2.5 mg/kg
[15] = system: dogs; conditions: dog, in vivo, iv, 2 mg/kg
[16] = system: AVP-induced platelet aggregation (V1A antagonist activity); test: AVP-induced platelet aggregation in Phase 1 subjects; type: in vivo, human; conditions: 20 mg/day orally or 2.5 mg IV
[17] = system: AVP-induced dermal vasoconstriction; test: AVP-induced dermal vasoconstriction in Phase 1 subjects; type: in vivo, human; conditions: 50 mg IV
[18] = system: aquaretic action (V2-receptor antagonism); test: Aquaretic action in normal subjects; type: in vivo, human
[19] = system: subjects; test: Safety in Phase 1 subjects; type: in vivo, human
Source text: Other adverse events included flushes, a sensation of cold extremities, abdominal complaints, abnormal stools, syncope, dizziness, palpitations, and postural hypotension. Three subjects who received YM087 and one subject who received placebo developed minor, reversible leukopenia. […] These observations were considered related to antagonism of V2 receptors and not a safety concern. Vital signs (blood pressure and heart rate) were unaffected by YM087.

[20] = system: patients with NYHA Class III/IV heart failure; test: Double-blind placebo-controlled IV dose-response study of cardiopulmonary hemodynamics in NYHA Class III/IV heart failure patients on ACE inhibitor background; type: in vivo, human; conditions: CHF patients
Procedure: These patients have advanced CHF/LV dysfunction. Patients must be receiving background therapy of diuretics, ACE inhibitors, and optionally digoxin and/or β-blocker; patients will be stratified as to whether they are receiving concomitant β-blocker treatment. […] Patients should take their daily dose of concomitant heart failure medications within 2 hours of catheter insertion. No additional doses of background heart failure medications should be administered during the study treatment phase. After insertion of a balloon-floatation pulmonary artery catheter, serial measurements will be obtained over an 8- to 18-hour baseline and stabilization period. […] The mean baseline PCWP in this study group was 24.2 mmHg. The mean baseline CI was 2.1 L/min/m^2. […] Fluid intake will be restricted to 250 mL every 2 hours (except at time of IV infusion) from time of insertion of Swan-Ganz catheter and throughout the treatment period. […] Serum electrolytes, BUN, creatinine, and serum osmolality will be measured at baseline and 4 and 12 hours posttreatment. Clinical laboratory and vasopressin plasma levels will be measured at baseline and 12 hours postdrug administration. […] Patients meeting baseline eligibility criteria (CI≦2.6 L/min/m^2; PCWP≧16 mmHg) on successive readings at least 30 minutes apart during 2 hours prior to study drug administration will enter the treatment phase. […] Clinical laboratory and vasopressin plasma levels will be measured 12 hours postdose. […] Serum electrolytes, BUN, creatinine, serum osmolality will be measured at 4 and 12 hours posttreatment. […] For this study, hemodynamic efficacy parameters of PCWP, CI, SVR, and PVR will be evaluated in terms of their response profile. The response profile will be assessed in terms of peak change, and AUC delimited by the parameter change from baseline and measurement times. […] If measurements are missing at certain times, the AUC will be calculated using all other available observations. Dose response over the treatment groups will be assessed for selected measures. […]

[21] = system: rats; conditions: female rats, 13-week repeated oral dose
[22] = Pharmacokinetics in healthy subjects (Phase 1); conditions: human

For `Cc1nc2c([nH]1)-c1ccccc1N(C(=O)c1ccc(NC(=O)c3ccccc3-c3ccccc3)cc1)CC2` [YM087, N-[4-(2-methyl-,4,5,6-tetrahydrornidazo[4,5-d][1]benzazepin-6-ylcarbonyl)phenyl]biphenyl-2-carboxamide hydrochloride], the “dose that reduced the AVP response by 50% (ID50)” value [1] was 0.32 mg/kg, the “ID50, AVP-induced pressor response” value [2] was 0.026 mg/kg and the urinary output ([3]; conscious dogs, oral 0.03 to 0.3 mg/kg, dose-related) was “increased urinary output”. For the same compound, the urinary osmolality ([3]; conscious dogs, oral 0.03 to 0.3 mg/kg, reduced from 1500) was < 100 mOsm/kg H2O, the “effect on urinary sodium (Na) or potassium (K) excretion” value ([3]; unlike furosemide) was “little or no effect” and the cardiac function [4] was “significantly improved the depressed cardiac function”. The diuresis [4] was “produced a water diuresis”, the “time to peak concentrations” value [5] was 0.5 h and the “time to peak concentrations” value [6] was 1 h. For the same compound, the peripheral blood counts ([7]; affected dogs, 13-week study) was “Decreased peripheral erythrocyte, leukocyte, and/or platelet counts”, the “reversibility of bone marrow and peripheral blood changes” value ([7]; dogs) was “reversible” and the bone marrow histopathology ([7]; dogs, 2- and 13-week oral studies) was “Histopathologic changes in bone marrow were observed”. The female fertility ([8]; female rats, 100 mg/kg orally for 2 weeks prior to mating with untreated males) was “reduced fertility index, increased implantation loss, and decreased live fetuses”, the “reproductive performance of male rats” value ([8]; male rats) was “did not affect” and the teratogenicity [9] was “not teratogenic”. The teratogenicity [10] was “not teratogenic”, the mutagenicity [11] was “not mutagenic” and the clastogenicity [12] was “not clastogenic”. The clastogenicity [13] was “not clastogenic”, the toxicity [14] was “No toxicity was observed” and the toxicity [15] was “No toxicity was observed”. For the same compound, the AVP-induced platelet aggregation [16] was “Inhibition”, the AVP-induced dermal vasoconstriction [17] was “Total inhibition” and the “duration of increased urine production rate postdosing” value ([18]; IV 50 mg/day) was ≤ 6 h. The “duration of increased urine production rate postdosing” value ([18]; IV doses up to 250 μg/kg) was “up to 3 hours”, the “tolerability of aquaretic effects” value ([18]; normal subjects, 120 mg QD or 60 mg BID orally or 50 mg IV) was “too uncomfortable in normal subjects to be tolerable” and the “dose at which aquaretic action with decrease in urine osmolarity starts” value ([18]; normal subjects, IV) was 0.05 mg/kg. For the same compound, the “dose at which aquaretic action with decrease in urine osmolarity starts” value ([18]; normal subjects, oral) was 15 mg, the overall safety ([19]; approximately 250 subjects treated) was “no major safety concerns were identified” and the “urinary and plasma osmolarity” value ([19]; at higher doses, with or without an increase in plasma sodium) was “urinary osmolarity decreased and plasma osmolarity increased”. The “biochemical or hematological laboratory parameters” value ([19]; human, in vivo) was “No drug-related trend was observed”, the “vital signs (blood pressure and heart rate)” value ([19]; human, in vivo) was “unaffected” and the serious adverse event ([19]; one patient with severe CHF, 80 mg/day for 4 days, relation to study drug could not be excluded) was “generalized tonic clonic seizure”. For the same compound, the “number of subjects who developed minor, reversible leukopenia” value ([19]; one subject on placebo also) was “Three”, the “most frequent adverse events” value ([19]; regardless of treatment association) was “mild or moderate thirst and mild headache” and the “pulmonary capillary wedge pressure (PCWP)” value ([20]; IV 10, 20 or 40 mg, 85% receiving ACE inhibitor, FIG. 1) was “significant reductions”. For the same compound, the “right atrial pressure (RAP)” value ([20]; IV 10, 20 or 40 mg, 85% receiving ACE inhibitor, FIG. 2) was “significant reduction”, the “hemodynamic effect as add-on therapy to ACE inhibitors” value ([20]; add-on to normal treatment with ACE inhibitors) was “surprisingly favorable hemodynamic effect” and the uterine weights [21] was “decreased at all doses”. The half-life ([22]; plasma) was 4 to 5 h, the bioavailability ([22]; plasma, oral) was 43 to 59% and the Tmax ([22]; plasma, po) was ~1 h. For the same compound, the “plasma levels on repeated dosing” value ([22]; repeated BID oral doses, 60 mg) was “unexpectedly high plasma levels after the second dose”.
